From ChEMBL document CHEMBL3526115, “Differences in the pharmacokinetics of 4-amino-3-chlorophenyl hydrogen sulfate, a metabolite of resatorvid, in rats and dogs” (Drug Metab Dispos, 2012)

How the values were obtained:
[1] = Dissociation constant, pKa of the compound; format: physicochemical
[2] = Elimination half life in iv dosed rat plasma; format: ADME, organism-based; details: read-out: beta t1/2 (converted)
[3] = Elimination half life in iv dosed dog plasma; format: ADME, organism-based, Canis lupus familiaris; details: read-out: beta t1/2 (converted)
[4] = Half life in human plasma at 5 mg/kg; format: ADME, organism-based; set-up: dose 5 mg/kg
[5] = Half life in dog plasma at 5 mg/kg; format: ADME, organism-based, Canis lupus familiaris; set-up: dose 5 mg/kg
[6] = Half life in rat plasma at 5 mg/kg; format: ADME, organism-based; set-up: dose 5 mg/kg

SMILES	pKa [1]	half-life [2]	half-life [3]	half-life [4]	half-life [5]	half-life [6]
Nc1ccc(OS(=O)(=O)O)cc1Cl	2.4	–	–	–	–	–
CCOC(=O)C1=CCCC[C@H]1S(=O)(=O)N[14c]1[14cH][14cH][14c](F)[14cH][14c]1Cl	–	5.6 h	158 h	–	–	–
O=C(O)COc1ccc(Cl)cc1Cl [2,4-DICHLOROPHENOXYACETIC ACID]	–	–	–	12 h	92 h	< 1 h
Cc1cc(Cl)ccc1OCC(=O)O [METAXON]	–	–	–	11 h	63 h	6 h
